pIC50: −log10 of the molar value.
What was measured:
[1] = biological target: HEK293 cells expressing NR1/NR2B (Homo sapiens (Human), UniProt Q13224); experiment: NR2B NAM Assay (FDSS Ca2+ influx cell assay); format: cell-based; settings: Ca2+ influx inhibition relative to MK801; 3 μM glutamate, 3 μM glycine, 1 mM Ca2+; read-out: NR2B NAM IC50
Method: (§1) Cell Culture and plating: HEK293 cells expressing NR1/NR2B (Chantest, Cleveland, Ohio) were grown to 70-80% confluency as an adherent monolayer in standard tissue culture flasks at 37° C., 5% CO2 per supplier's instructions. NR2B expression was induced by incubation with 0.3-0.4 μg/ml tetracycline in the presence of 4 mM ARL-15896 for 18-24 hours under the same growth conditions, then transferred to 30° C. for another 3-5 hours.
(§2) After induction, cell culture medium was removed and cells were rinsed once with Ca^2+ and Mg^2+-free Dulbecco's phosphate buffered saline. Cells were then removed from the flask using TrypLE™ Express (Life Technologies) according to the manufacturer's instructions and collected to 50 ml centrifuge tubes. Following two washes in Ca^2+/Mg^2+-free HBSS with 20 mM HEPES (HHnoCa), cells were counted and viability assessed using trypan blue. To load cells with Ca^2+-sensitive dye, they were resuspended in fluo-8 plus Component B (AAT Bioquest Products) diluted in HHnoCa and incubated 15 minutes at 37° C., followed by 30 minutes at room temp (in dark). Cells were then washed and resuspended in HHnoCa to remove extracellular dye and plated in 384-well plates (Falcon, uncoated) at 20,000-30,000 cells/well in a final volume of 25 μl/well.
(§3) FDSS Assay: To each well of the plate, 10 μL test compound, control (MK801) or HHnoCa buffer was added at different concentrations to yield final concentrations of 0.001, 0.003, 0.010, 0.030, 0.100, 0.300, 1.000, 3.000, 10.000, or 30.000 uM final concentration of DMSO of 0.1%. Following 10 minutes pre-incubation in the dark, plates are loaded onto the Hamamatsu FDSS 6000. After collecting baseline fluorescence images, 3 μM glutamate, 3 μM glycine, and 1 mM Ca^2+ in HHnoCa buffer is added to each well, and Ca^2+ is recorded for 3 minutes. Data were processed by computing ratio of fluorescence at the end of data collection to baseline fluorescence to assess degree of Ca^2+ influx inhibition relative to that observed in MK801.
(§4) Table 8 below provides activity of each compound according to the legend that “++++” indicates inhibition at a concentration<100 nM; “+++” indicates inhibition at a concentration between 100 nM and 1 μM of the disclosed compound; “++” indicates inhibition at a concentration of from 1 μM to 10 μM; and “+” indicates inhibition at a concentration>10 μM.

[2] = biological target: HEK293 cells expressing NR1/NR2B (Homo sapiens (Human), UniProt Q05586+Q13224); experiment: NR2B NAM Assay (FDSS Ca2+ influx cell assay); format: cell-based; settings: NR2B NAM assay, class of inhibitory concentration; read-out: Activity Category
Method: as §1, §2, §3, §4

HEK293 cells expressing NR1/NR2B (Homo sapiens (Human), UniProt Q05586+Q13224), sequence (Q13224 27-1484, other chains not shown): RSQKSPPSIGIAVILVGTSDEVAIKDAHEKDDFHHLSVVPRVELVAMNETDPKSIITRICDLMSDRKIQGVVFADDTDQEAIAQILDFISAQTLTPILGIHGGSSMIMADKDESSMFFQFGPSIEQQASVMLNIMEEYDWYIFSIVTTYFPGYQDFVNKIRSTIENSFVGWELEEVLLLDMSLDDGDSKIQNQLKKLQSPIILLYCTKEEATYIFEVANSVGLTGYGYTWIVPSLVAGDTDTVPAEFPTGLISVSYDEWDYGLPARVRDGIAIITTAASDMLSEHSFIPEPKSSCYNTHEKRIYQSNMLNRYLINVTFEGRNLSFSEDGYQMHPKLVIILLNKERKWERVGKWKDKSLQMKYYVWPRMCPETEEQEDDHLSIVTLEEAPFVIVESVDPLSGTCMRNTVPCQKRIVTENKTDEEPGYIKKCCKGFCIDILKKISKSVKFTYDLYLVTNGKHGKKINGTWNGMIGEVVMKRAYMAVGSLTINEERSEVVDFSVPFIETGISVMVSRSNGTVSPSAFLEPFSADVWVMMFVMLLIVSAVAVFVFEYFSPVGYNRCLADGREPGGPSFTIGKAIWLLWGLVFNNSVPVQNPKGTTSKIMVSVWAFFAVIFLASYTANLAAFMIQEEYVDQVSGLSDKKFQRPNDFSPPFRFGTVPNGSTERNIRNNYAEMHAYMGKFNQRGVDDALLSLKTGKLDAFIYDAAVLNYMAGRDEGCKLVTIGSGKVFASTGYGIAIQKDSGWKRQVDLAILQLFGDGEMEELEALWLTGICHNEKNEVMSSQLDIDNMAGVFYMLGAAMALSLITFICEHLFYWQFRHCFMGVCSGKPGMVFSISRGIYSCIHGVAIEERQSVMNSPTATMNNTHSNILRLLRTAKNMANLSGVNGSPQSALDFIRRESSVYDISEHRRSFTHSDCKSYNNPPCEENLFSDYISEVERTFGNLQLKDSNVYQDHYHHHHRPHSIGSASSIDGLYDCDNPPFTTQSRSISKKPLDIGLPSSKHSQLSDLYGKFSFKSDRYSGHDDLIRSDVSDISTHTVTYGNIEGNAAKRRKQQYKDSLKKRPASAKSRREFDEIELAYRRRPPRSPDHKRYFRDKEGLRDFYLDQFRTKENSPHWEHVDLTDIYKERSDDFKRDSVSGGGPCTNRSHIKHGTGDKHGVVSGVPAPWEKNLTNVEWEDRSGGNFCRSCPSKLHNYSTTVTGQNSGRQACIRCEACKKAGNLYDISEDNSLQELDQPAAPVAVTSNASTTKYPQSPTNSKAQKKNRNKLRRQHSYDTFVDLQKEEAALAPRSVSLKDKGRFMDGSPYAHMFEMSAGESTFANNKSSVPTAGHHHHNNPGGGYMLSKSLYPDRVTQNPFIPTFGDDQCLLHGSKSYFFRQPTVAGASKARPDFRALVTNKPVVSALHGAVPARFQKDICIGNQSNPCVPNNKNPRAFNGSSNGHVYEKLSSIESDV
HEK293 cells expressing NR1/NR2B (Homo sapiens (Human), UniProt Q13224), sequence (Q13224 27-1484, other chains not shown): as above

SMILES | pIC50 [1] | pIC50 [2]
O=C(CN1C[C@H]2C[C@H](Oc3ccc(F)cc3)C[C@H]2C1)c1ccc(O)cc1 | 7.33 | > 7.00
COc1ncccc1O[C@H]1C[C@@H]2CN(CC(=O)c3ccc(O)cc3)C[C@@H]2C1 | 5.00 | < 5.00
COc1ccc(O[C@H]2C[C@@H]3CN(CC(O)c4ccc(O)c(F)n4)C[C@@H]3C2)cc1 (some centres unmarked) | 5.48 | 5.00 to 6.00
Oc1ccc(C(O)CN2C[C@H]3C[C@H](Oc4cccnc4)C[C@H]3C2)cc1F (some centres unmarked) | 7.28 | > 7.00
O=C(CN1C[C@H]2C[C@H](Oc3ccc(F)cc3F)C[C@H]2C1)c1ccc(O)cn1 | 5.94 | 5.00 to 6.00
O=S(=O)(c1ccccc1)[C@H]1C[C@@H]2CN(CC(O)c3ccc(O)cc3)C[C@@H]2C1 (some centres unmarked) | 5.36 | 5.00 to 6.00
Cc1ccc(O[C@H]2C[C@@H]3CN(CC(=O)c4ccc(O)cn4)C[C@@H]3C2)c(F)n1 | 5.00 | < 5.00
O=C(CN1C[C@H]2C[C@@H](Oc3cc(F)cc(F)c3)C[C@H]2C1)c1ccc(O)cn1 | 5.00 | < 5.00
Oc1ccc(C(O)CN2C[C@H]3C[C@H](Oc4cccc(F)c4F)C[C@H]3C2)nc1 (some centres unmarked) | 8.06 | > 7.00
O=C(CN1C[C@H]2C[C@H](Oc3ccccc3F)C[C@H]2C1)c1ccc(O)cc1 | 7.77 | > 7.00
O=C(CN1C[C@H]2C[C@H](Oc3c(F)cccc3F)C[C@H]2C1)c1ccc(O)cc1 | 7.53 | > 7.00
COc1ccc(F)c(O[C@H]2C[C@@H]3CN(CC(O)c4ccc(O)cn4)C[C@@H]3C2)c1 (some centres unmarked) | 6.26 | 6.00 to 7.00
Oc1ccc(C(O)CN2C[C@H]3C[C@H](Oc4ccccc4Cl)C[C@H]3C2)nc1 (some centres unmarked) | 7.42 | > 7.00
O=C(CN1C[C@H]2C[C@H](Oc3cc(F)cc(F)c3)C[C@H]2C1)c1ccc(O)cn1 | 5.00 | < 5.00
Cc1ccc(O[C@H]2C[C@@H]3CN(CC(=O)c4ccc(O)cc4)C[C@@H]3C2)c(F)c1 | 6.68 | 6.00 to 7.00
O=C(CN1C[C@H]2C[C@@H](Oc3ccc(F)cc3)C[C@H]2C1)c1ccc(O)c(F)c1 | 7.27 | > 7.00
N#Cc1ccc(O[C@H]2C[C@@H]3CN(CC(O)c4ccc(O)cn4)C[C@@H]3C2)cc1 (some centres unmarked) | 7.74 | > 7.00
Oc1ccc(C(O)CN2C[C@H]3C[C@@H](Oc4ccc(F)cc4)C[C@H]3C2)cc1 (some centres unmarked) | 7.75 | > 7.00
O=C(CN1C[C@H]2C[C@H](Oc3cccnc3F)C[C@H]2C1)c1ccc(O)cn1 | 5.00 | < 5.00
Oc1ccc(C(O)CN2C[C@H]3C[C@@H](Oc4cc(F)cc(F)c4)C[C@H]3C2)nc1 (some centres unmarked) | 5.53 | 5.00 to 6.00
Oc1ccc(C(O)CN2C[C@H]3C[C@H](Oc4ccc(F)cc4)C[C@H]3C2)nc1 (some centres unmarked) | 8.36 | > 7.00
COc1ccc(O[C@H]2C[C@@H]3CN(CC(=O)c4ccc(O)c(OC)n4)C[C@@H]3C2)cc1 | 5.00 | < 5.00
Oc1ccc(C(O)CN2C[C@H]3C[C@H](Oc4ccc(F)cc4F)C[C@H]3C2)nc1 (some centres unmarked) | 8.17 | > 7.00
COc1ccc(O[C@@H]2C[C@@H]3CN(CC(O)c4ccc(O)cn4)C[C@@H]3C2)cc1 (some centres unmarked) | 6.36 | 6.00 to 7.00
Cc1cccc(O[C@H]2C[C@@H]3CN(CC(O)c4ccc(O)cn4)C[C@@H]3C2)c1F (some centres unmarked) | 7.63 | > 7.00
Oc1ccc(C(O)CN2C[C@H]3C[C@H](Sc4ccccc4)C[C@H]3C2)cc1 (some centres unmarked) | 8.03 | > 7.00
COc1ccc(O[C@H]2C[C@@H]3CN(CC(O)c4ccc(O)cn4)C[C@@H]3C2)cc1 (some centres unmarked) | 7.18 | > 7.00
Cc1ccc(O[C@H]2C[C@@H]3CN(CC(=O)c4ccc(O)cn4)C[C@@H]3C2)c(F)c1 | 6.65 | 6.00 to 7.00

Reference: US10239835B2, “N-alkylaryl-5-oxyaryl-octahydro-cyclopenta[c]pyrrole negative allosteric modulators of NR2B” (Luc Therapeutics, Inc., priority 2014, dated 2019)
